From patent US20250230165A1, “HETEROCYCLIC COMPOUNDS FOR USE IN THE TREATMENT OF CANCER” (ARTIOS PHARMA LIMITED, priority 2021, published 2025)

Biological target: T1, Human Polθ polymerase domain (aa1820-2590) (Homo sapiens, UniProt O75417)
T1 construct: Human Polθ polymerase domain (aa1820-2590) was expressed in E. coli; made in house; host or cells: E. coli
T1 sequence (O75417 1820-2590): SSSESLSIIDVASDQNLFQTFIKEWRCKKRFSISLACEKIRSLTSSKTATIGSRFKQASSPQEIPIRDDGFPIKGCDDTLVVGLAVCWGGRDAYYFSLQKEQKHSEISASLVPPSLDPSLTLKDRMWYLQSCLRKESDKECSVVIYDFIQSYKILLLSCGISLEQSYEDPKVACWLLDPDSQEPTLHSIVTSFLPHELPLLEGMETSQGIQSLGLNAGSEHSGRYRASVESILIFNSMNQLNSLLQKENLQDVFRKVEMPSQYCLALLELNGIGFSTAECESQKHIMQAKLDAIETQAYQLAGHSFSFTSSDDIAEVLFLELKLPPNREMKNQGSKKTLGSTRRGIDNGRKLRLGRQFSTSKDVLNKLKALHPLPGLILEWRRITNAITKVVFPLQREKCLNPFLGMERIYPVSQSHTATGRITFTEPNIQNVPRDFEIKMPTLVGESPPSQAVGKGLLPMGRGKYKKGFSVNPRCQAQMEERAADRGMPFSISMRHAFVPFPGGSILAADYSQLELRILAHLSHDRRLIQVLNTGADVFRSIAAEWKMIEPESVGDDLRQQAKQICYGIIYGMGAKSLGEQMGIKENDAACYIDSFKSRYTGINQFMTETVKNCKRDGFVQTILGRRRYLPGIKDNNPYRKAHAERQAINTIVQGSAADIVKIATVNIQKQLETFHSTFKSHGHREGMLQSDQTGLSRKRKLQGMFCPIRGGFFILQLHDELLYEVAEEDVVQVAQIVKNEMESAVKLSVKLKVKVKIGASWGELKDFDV
Experiment: Polθ Polymerase Domain Kinact/KI Assay (PicoGreen)
Format: biochemical
Conditions: 0.8 nM Polθ, 100 nM DNA substrate, kobs vs [I] fit for 2-step covalent inhibitor
How it was run: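 Covalent inhibitors were tested against E. coli-expressed enzyme (0.8 nM final) with 100 nM annealed DNA substrate and […] in Tris pH 7.5 buffer, 1% DMSO. Reactions were EDTA-quenched over a 0–60 min time course and product DNA detected by PicoGreen fluorescence.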

Question: With C=CC(=O)N1Cc2cc(CN3C[C@H]4CC(=O)N(c5cc(C(F)(F)F)cc(C)n5)[C@@H]4C(=O)N(C)c4cccc(Cl)c43)cnc2[C@H]1CO (racemic) [Example 231, (3aR,11aS)-5-(((S/R)-6-acryloyl-7-(hydroxymethyl)-6,7-dihydro-5H-pyrrolo[3,4-b]pyridin-3-yl)methyl)-6-chloro-10-methyl-1-(6-methyl-4-(trifluoromethyl)pyridin-2-yl)-1,3a,4,5,10,11a-hexahydro-2H-benzo[b]pyrrolo[2,3-f][1,4]diazocine-2,11(3H)-dione] as the compound, how does the Kinact/Kl read?
Answer: The Kinact/Kl was 860000 M⁻¹ s⁻¹.

Question: For C=CC(=O)N1Cc2cc(CN3C[C@H]4CC(=O)N(c5cc(C(F)(F)F)cc(C)n5)[C@@H]4C(=O)N(C)c4cccc(C)c43)cnc2[C@H]1CO (racemic) [Example 233, (3aR,11aS)-5-(((S/R)-6-acryloyl-7-(hydroxymethyl)-6,7-dihydro-5H-pyrrolo[3,4-b]pyridin-3-yl)methyl)-6,10-dimethyl-1-(6-methyl-4-(trifluoromethyl)pyridin-2-yl)-1,3a,4,5,10,11a-hexahydro-2H-benzo[b]pyrrolo[2,3-f][1,4]diazocine-2,11(3H)-dione], which Kinact/Kl is on record?
Answer: Its Kinact/Kl is 2.99e+06 M⁻¹ s⁻¹.

Question: Which Kinact/Kl does the source give for C=CC(=O)N1Cc2cc(CN3C[C@H]4CC(=O)N(c5cc(C(F)(F)F)cc(C)n5)[C@@H]4C(=O)N(C)c4cccc(C)c43)cnc2[C@H]1COC (racemic) [Example 234, (3aR,11aS)-5-(((S/R)-6-acryloyl-7-(methoxymethyl)-6,7-dihydro-5H-pyrrolo[3,4-b]pyridin-3-yl)methyl)-6,10-dimethyl-1-(6-methyl-4-(trifluoromethyl)pyridin-2-yl)-1,3a,4,5,10,11a-hexahydro-2H-benzo[b]pyrrolo[2,3-f][1,4]diazocine-2,11(3H)-dione] here?
Answer: The Kinact/Kl was 5.85e+06 M⁻¹ s⁻¹.

Question: How did the Kinact/Kl turn out when C=CC(=O)N1Cc2cc(CN3C[C@H]4CC(=O)N(c5cc(C(F)(F)F)cc(C)n5)[C@@H]4C(=O)N(C)c4cccc(Cl)c43)ccc2[C@@H]1CC#N (racemic) [Example 287a, 2-((S/R)-2-acryloyl-5-(((3aR,11aS)-6-chloro-10-methyl-1-(6-methyl-4-(trifluoromethyl)pyridin-2-yl)-2,11-dioxo-1,2,3,3a,4,10,11,11a-octahydro-5H-benzo[b]pyrrolo[2,3-f][1,4]diazocin-5-yl)methyl)isoindolin-1-yl)acetonitrile] was run?
Answer: The Kinact/Kl was 930000 M⁻¹ s⁻¹.

Question: With C=CC(=O)N1Cc2ccc(CN3C[C@H]4CC(=O)N(c5cc(C(F)(F)F)cc(C)n5)[C@@H]4C(=O)N(C)c4cccc(Cl)c43)cc2[C@@H]1CC#N (racemic) [Example 288b, 2-((S/R)-2-acryloyl-6-(((3aR,11aS)-6-chloro-10-methyl-1-(6-methyl-4-(trifluoromethyl)pyridin-2-yl)-2,11-dioxo-1,2,3,3a,4,10,11,11a-octahydro-5H-benzo[b]pyrrolo[2,3-f][1,4]diazocin-5-yl)methyl)isoindolin-1-yl)acetonitrile] as the compound, how does the Kinact/Kl read?
Answer: The Kinact/Kl was 500000 M⁻¹ s⁻¹.

Question: C=CC(=O)N1Cc2ccc(CN3C[C@H]4CC(=O)N(c5cc(C(F)(F)F)cc(C)n5)[C@@H]4C(=O)N(C)c4cccc(Cl)c43)nc2[C@@H]1CC#N (racemic) [Example 289b, 2-((S/R)-6-acryloyl-2-(((3aR,11aS)-6-chloro-10-methyl-1-(6-methyl-4-(trifluoromethyl)pyridin-2-yl)-2,11-dioxo-1,2,3,3a,4,10,11,11a-octahydro-5H-benzo[b]pyrrolo[2,3-f][1,4]diazocin-5-yl)methyl)-6,7-dihydro-5H-pyrrolo[3,4-b]pyridin-7-yl)acetonitrile] was tested. Which Kinact/Kl did it give?
Answer: The Kinact/Kl was 1.24e+06 M⁻¹ s⁻¹.

Question: For C=CC(=O)N1Cc2nc(CN3C[C@H]4CC(=O)N(c5cc(C(F)(F)F)cc(C)n5)[C@@H]4C(=O)N(C)c4cccc(Cl)c43)ccc2[C@@H]1CC#N (racemic) [Example 290a], which Kinact/Kl is on record?
Answer: The Kinact/Kl was 2.02e+06 M⁻¹ s⁻¹.

Question: Which Kinact/Kl does the source give for C=CC(=O)N1Cc2ncc(CN3C[C@H]4CC(=O)N(c5cc(C(F)(F)F)cc(C)n5)[C@@H]4C(=O)N(C)c4cccc(Cl)c43)cc2[C@@H]1CC#N (racemic) [Example 291b, 2-((S/R)-6-acryloyl-3-(((3aR,11aS)-6-chloro-10-methyl-1-(6-methyl-4-(trifluoromethyl)pyridin-2-yl)-2,11-dioxo-1,2,3,3a,4,10,11,11a-octahydro-5H-benzo[b]pyrrolo[2,3-f][1,4]diazocin-5-yl)methyl)-6,7-dihydro-5H-pyrrolo[3,4-b]pyridin-5-yl)acetonitrile] here?
Answer: The Kinact/Kl was 1.48e+06 M⁻¹ s⁻¹.

Question: How did the Kinact/Kl turn out when C=CC(=O)N1Cc2cc(CN3C[C@H]4CC(=O)N(c5cc(C(F)(F)F)cc(C)n5)[C@@H]4C(=O)N(C)c4cccc(Cl)c43)cnc2[C@@H]1CC#N (racemic) [Example 292a, 2-((S/R)-6-acryloyl-3-(((3aR,11aS)-6-chloro-10-methyl-1-(6-methyl-4-(trifluoromethyl)pyridin-2-yl)-2,11-dioxo-1,2,3,3a,4,10,11,11a-octahydro-5H-benzo[b]pyrrolo[2,3-f][1,4]diazocin-5-yl)methyl)-6,7-dihydro-5H-pyrrolo[3,4-b]pyridin-7-yl)acetonitrile] was run?
Answer: Its Kinact/Kl is 2.97e+06 M⁻¹ s⁻¹.

Question: Which Kinact/Kl does the source give for C=CC(=O)N1Cc2nc(CN3C[C@H]4CC(=O)N(c5cc(C(F)(F)F)cc(C)n5)[C@@H]4C(=O)N(C)c4cccc(Cl)c43)cn2C[C@H]1C(F)(F)F (racemic) [Example 293a, (3aR,11aS)-5-(((S/R)-7-acryloyl-6-(trifluoromethyl)-5,6,7,8-tetrahydroimidazo[1,2-a]pyrazin-2-yl)methyl)-6-chloro-10-methyl-1-(6-methyl-4-(trifluoromethyl)pyridin-2-yl)-1,3a,4,5,10,11a-hexahydro-2H-benzo[b]pyrrolo[2,3-f][1,4]diazocine-2,11(3H)-dione] here?
Answer: Its Kinact/Kl is 880000 M⁻¹ s⁻¹.

Question: For C=CC(=O)N1Cc2cc(CN3C[C@H]4CC(=O)N(c5cc(C(F)(F)F)cc(C)n5)[C@@H]4C(=O)N(C)c4cccc(Cl)c43)nn2C[C@@H]1C (racemic) [Example 294b, (3aR,11aS)-5-(((S/R)-5-acryloyl-6-methyl-4,5,6,7-tetrahydropyrazolo[1,5-a]pyrazin-2-yl)methyl)-6-chloro-10-methyl-1-(6-methyl-4-(trifluoromethyl)pyridin-2-yl)-1,3a,4,5,10,11a-hexahydro-2H-benzo[b]pyrrolo[2,3-f][1,4]diazocine-2,11(3H)-dione], which Kinact/Kl is on record?
Answer: Its Kinact/Kl is 2.48e+06 M⁻¹ s⁻¹.

Question: Which Kinact/Kl does the source give for Cc1cc(C(F)(F)F)cc(N2C(=O)C[C@@H]3CN(Cc4ccc5c(c4)CN(C(=O)/C=C/CN(C)C)[C@H]5CC#N)c4c(Cl)cccc4N(C)C(=O)[C@H]32)n1 (racemic) [Example 310a, 2-((S/R)-5-(((3aR,11aS)-6-chloro-10-methyl-1-(6-methyl-4-(trifluoromethyl)pyridin-2-yl)-2,11-dioxo-1,2,3,3a,4,10,11,11a-octahydro-5H-benzo[b]pyrrolo[2,3-f][1,4]diazocin-5-yl)methyl)-2-((E)-4-(dimethylamino)but-2-enoyl)isoindolin-1-yl)acetonitrile] here?
Answer: Its Kinact/Kl is 2.31e+06 M⁻¹ s⁻¹.

Question: With Cc1cc(C(F)(F)F)cc(N2C(=O)C[C@@H]3CN(Cc4ccc5c(c4)[C@H](CC#N)N(C(=O)/C=C/CN(C)C)C5)c4c(Cl)cccc4N(C)C(=O)[C@H]32)n1 (racemic) [Example 311b, 2-((S/R)-6-(((3aR,11aS)-6-chloro-10-methyl-1-(6-methyl-4-(trifluoromethyl)pyridin-2-yl)-2,11-dioxo-1,2,3,3a,4,10,11,11a-octahydro-5H-benzo[b]pyrrolo[2,3-f][1,4]diazocin-5-yl)methyl)-2-((E)-4-(dimethylamino)but-2-enoyl)isoindolin-1-yl)acetonitrile] as the compound, how does the Kinact/Kl read?
Answer: Its Kinact/Kl is 1.22e+06 M⁻¹ s⁻¹.

Question: With C=CC(=O)N1Cc2ccc(CN3C[C@H]4CC(=O)N(c5cc(C(F)(F)F)cc(C)n5)[C@@H]4C(=O)N(C)c4cccc(C)c43)nc2[C@H]1CC#N (racemic) [Example 318a, 2-((R/S)-6-acryloyl-2-(((3aR,11aS)-6,10-dimethyl-1-(6-meth-yl-4-(trifluorometh-yl)pyridin-2-yl)-2,11-dioxo-1,2,3,3a, 4,10,11,11a-octa-hydro-5H-benzo[b]pyrrolo[2,3-f][1,4]diazocin-5-yl)meth-yl)-6,7-dihydro-5H-pyrrolo[3,4-b]pyr-idin-7-yl)acetonitrile] as the compound, how does the Kinact/Kl read?
Answer: The Kinact/Kl was 1.9e+06 M⁻¹ s⁻¹.

Question: For C=CC(=O)N1Cc2ccc(CN3C[C@H]4CC(=O)N(c5cc(C(F)(F)F)cc(C)n5)[C@@H]4C(=O)N(C)c4cccc(C)c43)nc2[C@@H]1CC#N (racemic) [Example 318b, 2-((S/R)-6-acryloyl-2-(((3aR,11aS)-6,10-dimethyl-1-(6-meth-yl-4-(trifluorometh-yl)pyridin-2-yl)-2,11-dioxo-1,2,3,3a, 4,10,11,11a-octa-hydro-5H-benzo[b]pyrrolo[2,3-f][1,4]diazocin-5-yl)meth-yl)-6,7-dihydro-5H-pyrrolo[3,4-b]pyr-idin-7-yl)acetonitrile], which Kinact/Kl is on record?
Answer: Its Kinact/Kl is 1.56e+06 M⁻¹ s⁻¹.
